Laboratory results published in patent US20250195520A1, “COMBINATION THERAPY USING A PTPN11 INHIBITOR AND AN EGFR INHIBITOR” (NAVIRE PHARMA, INC., priority 2021, published 2025).
“Also recorded” adds a separate entry of the source.

Experiments:
[1] = system: HCC4006-OsiR cells; experiment: In vitro clonogenic assay (crystal violet, Bliss score), HCC4006-OsiR; format: cell-based, human; conditions: 14-day clonogenic assay
Protocol: (§1) In vitro clonogenic assay. […] Compounds were prediluted in media at 4x the final concentration, and the final DMSO concentration was 0.2% in 1 mL of media per 24-well. After 12˜14 days of treatment, the plates were stained with crystal violet solution.
(§2) Crystal violet staining, quantification and Bliss score calculation. The 0.1% crystal violet staining solution was prepared by mixing 100 mL of 1% crystal violet solution (Sigma #V5265), 100 mL of 100% ethanol and 800 mL of ddH2O. […] After removal of DPBS, 0.5 mL of 0.1% crystal violet staining solution was added to each 24-well. The plates were incubated at room temperature for 30 min. The staining solution was removed from wells and discarded. Each well was then washed with 1 mL of ddH2O. Afterwards, the plates were dipped in a large bucket filled with tap water 2˜4 times until the supernatant became colorless. […]
(§3) The OD590 readings (multiplied by the dilution factor) were normalized to the average of DMSO treated samples, using Microsoft Excel. The Bliss expectation was calculated with the equation (A+B)−A×B/100, where A and B were the percentage growth inhibition induced by agents A and B at a given dose. Bliss score is the difference between the detected growth inhibition (%) caused by the combination of the two agents and the bliss expectation. […]

[2] = system: HCC4006-OsiR cells; experiment: In vitro 3-day proliferation assay (CellTiter-Glo 2.0), HCC4006-OsiR; format: cell-based, human
Protocol: (§4) Cell lines. The HCC4006 cell line was purchased from ATCC. […] The cells were cultured in RPMI-1640 containing 4 mM glutamax (Thermo Fisher #72400-120)+10% fetal bovine serum (FBS, Sigma #F2442) in 37° C. tissue culture incubator with 5% CO2 (NUAIRE, NU-5510).
(§5) In vitro 3-day proliferation assay. HCC4006 or HCC4006-OsiR cells were plated in 96-well plates (Corning #3603) at 1,500 cells per well in 100 μL of media (RPMI-1640+10% FBS) and allowed to attach overnight. […] Final DMSO concentration was 0.1%. After 3 days of treatment, viable cell numbers were determined using CellTiter-Glo 2.0 cell viability assay (Promega #G9241).
(§6) CellTiter-Glo 2.0 cell viability assay. CellTiter-Glo 2.0 cell viability assay (Promega #G9241) was used to determine the relative viable cell number, following manufacturer's protocols. Briefly, 100 μL CellTiter-Glo reagent was added to each well in the 96-well plate. The plate was put on a VWR advanced 3500 orbital shaker (VWR #89032-096) at 100 rpm shaking for 5 min at room temperature, then incubated at room temperature for 15 min, protected from the light. Afterwards, luminescence was quantified using a PheraStar plate reader (BMG Labtech). The luminescence readings were normalized to the average of DMSO treated samples of each cell line, using Microsoft Excel. Data were plotted in GraphPad Prism 8.0. Non-linear fit was used to generate the dose response curve. […]

[3] = system: HCC4006 cells; experiment: In vitro 3-day proliferation assay (CellTiter-Glo 2.0), HCC4006; format: cell-based; conditions: Homo sapiens, 72 h, HCC4006 parental cells
Protocol: as §4, §5, §6

[4] = system: HCC4006 cells; experiment: In vitro clonogenic assay (crystal violet, Bliss score), HCC4006; format: cell-based; conditions: Homo sapiens, 336 h; HCC4006, 14-day clonogenic assay
Protocol: as §1, §2, §3

[5] = target: T1, PTPN11-E76K mutant enzyme (Homo sapiens, UniProt Q06124, E76K); conditions: e.g. PTPN11-E76K mutant enzyme; stated as 'in certain embodiments'; read-out: IC50 for inhibition of PTPN11; cited from earlier work
T1 sequence (Q06124 1-593 E76K): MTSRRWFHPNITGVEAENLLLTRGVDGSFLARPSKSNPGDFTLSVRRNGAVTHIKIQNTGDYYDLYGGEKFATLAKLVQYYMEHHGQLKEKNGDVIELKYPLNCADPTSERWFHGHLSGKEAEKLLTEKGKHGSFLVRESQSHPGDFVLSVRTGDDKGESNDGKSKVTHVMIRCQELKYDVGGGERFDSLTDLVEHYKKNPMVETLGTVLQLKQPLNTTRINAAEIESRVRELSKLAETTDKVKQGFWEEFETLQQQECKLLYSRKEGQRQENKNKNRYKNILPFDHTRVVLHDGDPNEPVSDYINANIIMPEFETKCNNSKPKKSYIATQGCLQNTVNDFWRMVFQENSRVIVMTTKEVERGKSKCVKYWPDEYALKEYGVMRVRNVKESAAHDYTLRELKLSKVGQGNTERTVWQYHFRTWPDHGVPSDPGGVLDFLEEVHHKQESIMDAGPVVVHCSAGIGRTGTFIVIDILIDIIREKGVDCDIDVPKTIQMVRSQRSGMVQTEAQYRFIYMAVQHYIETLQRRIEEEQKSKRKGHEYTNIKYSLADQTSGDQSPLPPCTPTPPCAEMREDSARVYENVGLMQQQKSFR

[6] = system: NCI-H1975 (C797S+) tumors; experiment: NCI-H1975 (C797S+) tumor model, tumor volume; format: in vivo, mouse

Row | Compound | shift in IC50, HCC4006-OsiR compared with HCC4006 parental cells [1] | IC50 ([1]; Homo sapiens, 336 h, HCC4006-OsiR) | anti-proliferative effect ([2]; 1,000 nM (the highest concentration tested), HCC4006-OsiR, 3-day) | IC50 ([2]; Homo sapiens, 72 h, HCC4006-OsiR cells, 3-day proliferation assay) | IC50 [3] | IC50 [4] | IC50 [5] | tumor growth (tumor volume) [6]
1 | C=CC(=O)Nc1cc(Nc2nccc(-c3cn(C)c4ccccc34)n2)c(OC)cc1N(C)CCN(C)C [Osimertinib] | 20 fold | 0.257 ± 0.241 µM | no anti-proliferative effect | > 1 µM | 0.027 ± 0.0079 µM | 0.0122 ± 0.0025 µM |  | 
2 | Cc1c(N2CCC3(CC2)CO[C@@H](C)[C@H]3N)nc(C)n(-c2cccc(Cl)c2Cl)c1=O (atropisomer, axis not shown; (Ra)) [Formula (10b), 6-((3S,4S)-4-amino-3-methyl-2-oxa-8-azaspiro[4.5]decan-8-yl)-3-(Ra)-(2,3-dichlorophenyl)-2,5-dimethylpyrimidin-4 (3H)-one] |  |  |  |  |  |  | ≤ 0.05 µM | suppresses the growth; also recorded: robust tumor regression
